Laboratory results reported in publication PMC6592549, “Ligand-guided homology modeling drives identification of novel histamine H3 receptor ligands” (PLoS ONE, 2019).
Read-outs that look alike come from different tables or passages of the source.

Legend:
[1] = target: Histamine H3 receptor (H3R); conditions: Table A in S1 File, cited from earlier work
[2] = target: Histamine H3 receptor (H3R); conditions: Table A in S1 File, cited from earlier work; remark: listed apart in the source
hH3R = target: T1, hH3R (Homo sapiens, UniProt Q9Y5N1); test: Radioligand depletion assay with [3H]-N-alpha-methylhistamine on crude hH3R membrane extracts; format: binding; conditions: for Ki: mean of at least three independent experiments, each in triplicates, Cheng-Prusoff; for H3R binding, result in words: radioligand depletion assay against H3R
T1 construct: expressed in transfected cells; host or cells: HEK-293 cells stably expressing hH3R
T1 sequence (Q9Y5N1 whole entry): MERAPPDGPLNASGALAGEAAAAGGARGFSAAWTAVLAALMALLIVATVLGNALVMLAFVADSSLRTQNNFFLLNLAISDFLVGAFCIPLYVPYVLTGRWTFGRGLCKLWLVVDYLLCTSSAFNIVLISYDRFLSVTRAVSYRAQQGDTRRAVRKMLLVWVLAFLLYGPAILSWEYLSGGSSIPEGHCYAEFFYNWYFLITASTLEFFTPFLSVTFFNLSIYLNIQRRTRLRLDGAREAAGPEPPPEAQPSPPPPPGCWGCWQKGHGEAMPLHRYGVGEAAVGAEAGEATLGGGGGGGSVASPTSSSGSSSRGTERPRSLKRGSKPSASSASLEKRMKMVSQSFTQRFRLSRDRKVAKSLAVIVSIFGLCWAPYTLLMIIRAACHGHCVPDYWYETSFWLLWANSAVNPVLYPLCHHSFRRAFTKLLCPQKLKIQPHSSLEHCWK
Method: Radioligand depletion assays were performed as described previously using crude hH3R membrane extracts obtained from HEK-293 cells stably expressing the hH3R [15, 57]. Briefly, crude membrane extracts were incubated with various concentrations of test ligands (between 0.01 nM and 100 μM) and [3H]-N-alpha-methylhistamine. Bound radioligand were harvested through GF/B filters and measured using liquid scintillation counting. Data analysis were performed with GraphPad Prism 6 using non-linear regression. The Ki values for each experiment were obtained according to Cheng-Prusoff and converted to pKi values to allow statistical analysis. Mean values were calculated from at least three independent experiments, each performed in triplicates (Table E in S1 File).

c1nc([C@H]2C[C@@H]2CCNCC2CCCCC2)c[nH]1 [CHEMBL214312]
Ki ([1]; ref 7 (S1 File)): 5.3 nM

N#CC(C#N)=C1N(CCCN2CCCCC2)CCN1CCCN1CCCCC1 [CHEMBL257391]
Ki ([1]; ref 6 (S1 File)): 2.4 nM

C[C@@H]1CCCN1CCc1cc2cc(CNc3ccc(Cl)nn3)ccc2o1 [CHEMBL362952]
Ki ([1]; ref 10 (S1 File)): 0.3 nM

C[C@@H]1C[C@@](O)(C#Cc2cccc3ccccc23)[C@@H](C)CN1C [CHEMBL1269844]
IC50 ([2]; ref 3 (S1 File)): 9 nM

C[C@@H]1CCCN1CCCOc1ccc(-c2cc(-c3ccccc3)c(=O)n(C)c2)cc1 [CHEMBL1923737]
Ki ([1]; ref 5 (S1 File)): 3.5 nM

CCNC(=O)C1CC(F)(c2ccc(CN3CCCC3)c(F)c2)C1 (centres unmarked) [CHEMBL2151197]
Ki ([1]; ref 9 (S1 File)): 2.3 nM

CN(C)CCc1ccc(NC(=O)Nc2ccc(CCN(C)C)cc2)cc1 [CHEMBL2387294]
IC50 ([2]; ref 2 (S1 File)): 6.5 nM

c1ccc2c(CCNc3ccc(CN4CCOCC4)cc3)c[nH]c2c1 [CHEMBL2419581]
Ki ([1]; ref 4 (S1 File)): 4.3 nM

CC(C)N1CCN(C(=O)[C@H]2CC23CCN(C2CCOCC2)CC3)CC1 [CHEMBL3124968]
IC50 ([2]; ref 8 (S1 File)): 8.3 nM

O=C(c1csc(-c2ccccc2)n1)N1CCCN(C2CC2)CC1 [compound 5]
Ki (hH3R): 148 nM | H3R binding, result in words (hH3R): nanomolar concentration ranges

CCN1CCN(C(=O)c2ccc(-c3nc4ccccc4s3)s2)CC1 [compound 6]
Ki (hH3R): 38.2 nM | H3R binding, result in words (hH3R): nanomolar concentration ranges

Cc1csc(-c2ccc(C(=O)N3CCN(C)CC3)cc2)n1 [compound 8]
H3R binding, result in words (hH3R): inactive
